PMC9411606, “Control cell migration by engineering integrin ligand assembly” (Nature Communications, 2022)

Experiment: Circular dichroism (CD) spectroscopy of peptide assemblies
Format: physicochemical
Conditions: 100 µM, aqueous, 0.5 mm path
Experimental: CD spectra of the peptide assemblies in aqueous solutions were recorded under the nitrogen atmosphere using a spectrophotometer JASCO J-820 (Jasco, Japan). A quartz cuvette with 0.5 mm path length was used as a sample container. Continuous scanning mode is applied. And each sample is scanned three times to obtain an averaged spectrum.

Substance | secondary structure of self-assembly
FFIKLLI [candidate assembling ligand, FF coupled to N-terminus of IKLLI] | β-sheet structure
FIKLLI [candidate assembling ligand, F coupled to N-terminus of IKLLI] | random coil structure
